Results reported in patent US20230286995A1, “METABOLICALLY STABLE PYRIMIDINYL DIHYDROQUINOXALINONES AS TUBULIN POLYMERIZATION INHIBITORS” (UNIVERSITY OF TENNESSEE RESEARCH FOUNDATION, priority 2022, published 2023).
Where two headings read alike, the source gives them in different places.

Legend:
[1] = system: MDA-MB-231; assay: Cytotoxicity assay (MTS, 72 h); format: cell-based; settings: Homo sapiens
[2] = system: A375/TxR; assay: Cytotoxicity assay (MTS, 72 h); format: cell-based; settings: Homo sapiens, read-out: IC50 ± SEM (nM) A375/TxR
[3] = system: MDA-MB-231/VxR; assay: Cytotoxicity assay (MTS, 72 h); format: cell-based; settings: Homo sapiens, MDA-MB-231, read-out: IC50 ± SEM (nM) MDA-MB-231/VXR
[4] = system: A375; assay: Cytotoxicity assay (MTS, 72 h); settings: Homo sapiens;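 further: compounds tested from 0.1 nM up to 3 µM in four replicate wells, with absorbance read at 490 nm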
[5] = system: M14; assay: Cytotoxicity assay (MTS, 72 h); settings: Homo sapiens
[6] = system: melanoma, breast, pancreatic and prostate cancer cell lines; assay: Cytotoxicity of Example 8 compounds; format: cell-based, human
Description: (§1) Cytotoxicity Assay. […] Each experiment consisted of four replicates.

[7] = system: RPMI-7951; assay: Cytotoxicity assay (MTS, 72 h); format: cell-based; settings: Homo sapiens, Table 1, read-out: IC50 (nM) Melanoma RPMI-7951
[8] = system: MDA-MB-453; assay: Cytotoxicity assay (MTS, 72 h); format: cell-based, human
[9] = system: MDA-MB-468; assay: Cytotoxicity assay (MTS, 72 h); format: cell-based, human; settings: Table 1, read-out: IC50 (nM) Breast MDA-MB-468
[10] = logP; format: physicochemical; settings: Table 1; method not described
[11] = system: human melanoma and breast cancer cell lines; assay: Cytotoxicity, all tested cell lines of Table 1; format: cell-based; settings: melanoma and breast lines of Table 1; for IC50: Homo sapiens, read-out: IC50 values, range over all tested cell lines
[12] = system: Mia PaCa-2; assay: Cytotoxicity assay (MTS, 72 h); format: cell-based; settings: Homo sapiens
[13] = system: PANC-1; assay: Cytotoxicity assay (MTS, 72 h); format: cell-based; settings: Homo sapiens
Protocol: Mia PaCa-2 and PANC-1 cells were seeded in 96-well plates at 4000 and 5000 cells per well, respectively.
as §1

[14] = system: PC3; assay: Cytotoxicity assay (MTS, 72 h); format: cell-based; settings: Homo sapiens, PC-3; Table 6; read-out: IC50 (nM) Prostate cancer PC3
Description: as §1

[15] = system: PC3/TxR; assay: Cytotoxicity assay (MTS, 72 h); format: cell-based; settings: Homo sapiens, Table 6, paclitaxel-resistant, read-out: IC50 (nM) Prostate cancer PC3/TxR
Protocol: Biology. Cell culture and Reagents. […] MIA Paca-2 pancreatic cancer cells were cultured in media also supplemented with 2.5% horse serum. PANC-1 and PC-3 were cultured in RPMI 1640 medium (Gibco, Carlsbad, Calif.) supplemented with 10% FBS and 1% antibiotic/antimycotic mixture. […] For biological experiments, pyrimidine dihydroquinoxalinone derivatives were dissolved in DMSO to create 20 mM stock solutions and stored at −20° C. until use.
as §1

[16] = in vitro; settings: human, liver microsomes
[17] = in vitro; settings: mouse, liver microsomes
[18] = MDA-MB-231, read-out: IC50 (nM) Breast MDA-MB-231, Table 1
[19] = Homo sapiens, MDA-MB-453, Table 1, read-out: IC50 (nM) Breast MDA-MB-453
[20] = A-375, read-out: IC50 (nM) Melanoma A375, Table 1
[21] = M14, read-out: IC50 (nM) Melanoma M14
[22] = MDA-MB-231, read-out: IC50 (nM) Breast Cancer MDA-MB-231, Table 6
[23] = Homo sapiens, MDA-MB-453, Table 6, read-out: IC50 (nM) Breast Cancer MDA-MB-453
[24] = Table 6, read-out: IC50 (nM) Pancreatic cancer Mia PaCa-2
[25] = Table 6, read-out: IC50 (nM) Pancreatic cancer PANC-1
[26] = A-375, read-out: IC50 (nM) Melanoma Cancer A375, Table 6
[27] = M14, read-out: IC50 (nM) Melanoma Cancer M14

Compound: COc1ccc(N(C)c2nc(C)nc3ccccc23)cc1 [Verubulin, N-(4-methoxyphenyl)-N,2-dimethylquinazolin-4-amine, reference compound]
- IC50 ([1]; MDA-MB-231, read-out: IC50 ± SEM (nM) MDA-MB-231, Table 2): 1.9 ± 0.4 nM
- IC50 [2]: 0.7 ± 0.1 nM
- IC50 [3]: 2 ± 0.4 nM
- IC50 ([4]; A-375, read-out: IC50 ± SEM (nM) A375, Table 2): 0.7 ± 0.1 nM
- IC50 ([5]; M14, read-out: IC50 ± SEM (nM) M14): 1 ± 0.1 nM

Compound: CNC(=O)C(=O)Nc1cc(OC)ccc1Nc1nc(SC)nc2c1CCC2 [Compound 21, N1-(5-methoxy-2-((2-(methylthio)-6,7-dihydro-5H-cyclopenta[d]pyrimidin-4-yl)amino)phenyl)-N2-methyloxalamide]
- cytotoxic potency [6]: little to no cytotoxic activity

Compound: CCNc1nc(N2CC(=O)Nc3cc(OC)ccc32)c2cccnc2n1 [Compound 5u, 4-(2-(ethylamino)pyrido[2,3-d]pyrimidin-4-yl)-7-methoxy-3,4-dihydroquinoxalin-2(1H)-one]
- IC50 [7]: 4.8 ± 0.8 nM
- IC50 [1, 18]: 6.7 ± 1.2 nM
- IC50 [8, 19]: 4.5 ± 0.9 nM
- IC50 [9]: 10.5 ± 1.6 nM
- logP [10]: 2.51
- IC50 [11]: 0.4 to 26 nM
- IC50 [4, 20]: 5.8 ± 1 nM
- IC50 [5, 21]: 5.4 ± 0.7 nM

Compound: COc1ccc2c(c1)NC(=O)CN2c1nc(N2CCOCC2)nc2c1CCC2 [Compound 12e, 7-methoxy-4-(2-morpholino-6,7-dihydro-5H-cyclopenta[d]pyrimidin-4-yl)-3,4-dihydroquinoxalin-2(1H)-one]
- IC50 [1, 22]: 25.8 ± 4.6 nM
- IC50 [8, 23]: 17.6 ± 4 nM
- IC50 [12, 24]: 44.4 ± 7.1 nM
- IC50 [13, 25]: 56.2 ± 9 nM
- IC50 [14]: 23.9 ± 3.6 nM
- IC50 [15]: 14.4 ± 2.2 nM
- IC50 [4, 26]: ~13.6 nM
- IC50 [5, 27]: 18.3 ± 3.7 nM

Compound: Cc1nc2c(c(N3CC(=O)Nc4cc(OCc5ccccc5)ccc43)n1)CCC2 [Compound 12p, 7-(benzyloxy)-4-(2-methyl-6,7-dihydro-5H-cyclopenta[d]pyrimidin-4-yl)-3,4-dihydroquinoxalin-2(1H)-one]
- IC50 [1, 22]: 423 ± 110 nM
- IC50 ([12]; Table 6, cells printed in μM, read-out: IC50 Pancreatic cancer Mia PaCa-2): > 1250 nM
- IC50 ([13]; Table 6, cells printed in μM, read-out: IC50 Pancreatic cancer PANC-1): > 1200 nM
- cytotoxic potency [6]: least in potency

Compound: COc1ccc2c(c1)NC(=O)CN2c1nc(N=C=S)nc2c1CCC2 [Compound 12l, 4-(2-isothiocyanato-6,7-dihydro-5H-cyclopenta[d]pyrimidin-4-yl)-7-methoxy-3,4-dihydroquinoxalin-2(1H)-one]
- IC50 [1, 22]: 4.9 ± 0.8 nM
- IC50 [8, 23]: 2.9 ± 0.6 nM
- IC50 [12, 24]: 7.3 ± 1.2 nM
- IC50 [13, 25]: 10.7 ± 2.3 nM
- IC50 [14]: 6.3 ± 0.8 nM
- IC50 [15]: 4.8 ± 0.7 nM
- IC50 [4, 26]: ~3.3 nM
- IC50 [5, 27]: 2.6 ± 0.4 nM

Compound: COc1ccc2c(c1)NC(=O)CN2c1nc(NC2CC2)nc2c1CCC2 [Compound 12j, 4-(2-(cyclopropylamino)-6,7-dihydro-5H-cyclopenta[d]pyrimidin-4-yl)-7-methoxy-3,4-dihydroquinoxalin-2(1H)-one]
- IC50 [1, 22]: 2.2 ± 0.4 nM
- IC50 [8, 23]: 1.1 ± 0.3 nM
- IC50 [12, 24]: 3.9 ± 0.6 nM
- IC50 [13, 25]: 3.4 ± 0.6 nM
- IC50 [14]: 0.6 nM
- IC50 [15]: 0.2 nM
- half-life at 1 μg/mL [16]: 80.3 min
- microsomal CLint at 1 μg/mL [16]: 8.68 µL/min/mg
- half-life at 1 μg/mL [17]: 13.6 min
- microsomal CLint at 1 μg/mL [17]: 51 µL/min/mg
- IC50 [4, 26]: ~1.4 nM
- IC50 [5, 27]: 1.2 ± 0.3 nM

Compound: COc1ccc2c(c1)NC(=O)CN2c1nc(OC)nc2c1CCC2 [Compound 12b, 7-methoxy-4-(2-methoxy-6,7-dihydro-5H-cyclopenta[d]pyrimidin-4-yl)-3,4-dihydroquinoxalin-2(1H)-one]
- IC50 [1, 22]: 7.5 ± 1.5 nM
- IC50 [8, 23]: 3.4 ± 0.8 nM
- IC50 [12, 24]: 9 ± 1.3 nM
- IC50 [13, 25]: 9.4 ± 1.5 nM
- IC50 [14]: 7.2 ± 1.2 nM
- IC50 [15]: 4.7 ± 0.7 nM
- IC50 [4, 26]: ~3.2 nM
- IC50 [5, 27]: 5.3 ± 1.1 nM

Compound: COc1ccc2c(c1)NC(=O)CN2c1cc(C)nc2cccnc12 [Compound 5s, 7-methoxy-4-(2-methyl-1,5-naphthyridin-4-yl)-3,4-dihydroquinoxalin-2(1H)-one]
- IC50 [7]: 14.4 ± 2.4 nM
- IC50 [1, 18]: 23.9 ± 4.1 nM
- IC50 [8, 19]: 12.9 ± 2.3 nM
- IC50 ([9]; Homo sapiens, MDA-MB-468): 18.5 ± 4.1 nM
- logP [10]: 1.96
- IC50 [11]: 13 to 24 nM
- IC50 [4, 20]: 15 ± 2.1 nM
- IC50 [5, 21]: 18.3 ± 2.9 nM

Compound: COc1ccc2c(c1)NC(=O)CN2c1nc(Cl)nc(C)c1C [Compound 5q, 4-(2-chloro-5,6-dimethylpyrimidin-4-yl)-7-methoxy-3,4-dihydroquinoxalin-2(1H)-one]
- IC50 [7]: > 1000 nM
- IC50 [1, 18]: > 1000 nM
- IC50 [8, 19]: > 1000 nM
- IC50 ([9]; Homo sapiens, MDA-MB-468): > 1000 nM
- logP [10]: 2.76
- cytotoxic activity [11]: inactive
- IC50 [4, 20]: > 1000 nM
- IC50 [5, 21]: > 1000 nM

Compound: COc1ccc2c(c1)NC(=O)CN2c1nc(NCCO)nc2c1CCC2 [Compound 12m, 4-(2-((2-hydroxyethyl)amino)-6,7-dihydro-5H-cyclopenta[d]pyrimidin-4-yl)-7-methoxy-3,4-dihydroquinoxalin-2(1H)-one]
- IC50 [1, 22]: 8.6 ± 1.2 nM
- IC50 [8, 23]: 6.4 ± 1.6 nM
- IC50 [12, 24]: 23.6 ± 3.5 nM
- IC50 [13, 25]: 43.1 ± 8.2 nM
- IC50 [14]: 14.8 ± 1.8 nM
- IC50 [15]: 15 ± 1.6 nM
- IC50 [4, 26]: ~8.6 nM
- IC50 [5, 27]: 7 ± 1 nM

Compound: COc1ccc(Nc2nc(OC)nc3c2CCC3)c(N)c1 [Compound 20, 4-methoxy-N1-(2-methoxy-6,7-dihydro-5H-cyclopenta[d]pyrimidin-4-yl)benzene-1,2-diamine]
- cytotoxic potency [6]: little to no cytotoxic activity

Compound: COc1ccc2c(c1)NC(=O)CN2c1nc(Cl)nc2c1CCC2 [Compound 5l, 4-(2-chloro-6,7-dihydro-5H-cyclopenta[d]pyrimidin-4-yl)-7-methoxy-3,4-dihydroquinoxalin-2(1H)-one]
- IC50 [7]: 6.8 ± 2.5 nM
- IC50 [1, 18]: 25.7 ± 6.2 nM
- IC50 [8, 19]: 3.7 ± 1.2 nM
- IC50 ([9]; Homo sapiens, MDA-MB-468): 5.6 ± 2.2 nM
- logP [10]: 2.74
- IC50 [11]: 0.4 to 26 nM
- IC50 [4, 20]: 5.5 ± 0.7 nM
- IC50 [5, 21]: 5.9 ± 1.5 nM

Compound: COc1ccc2c(c1)NC(=O)CN2c1nc(Cl)nc2c1COC2 [Compound 5p, 4-(2-chloro-5,7-dihydrofuro[3,4-d]pyrimidin-4-yl)-7-methoxy-3,4-dihydroquinoxalin-2(1H)-one]
- IC50 [7]: 27.2 ± 3.9 nM
- IC50 [1, 18]: 36.8 ± 4.5 nM
- IC50 ([8]; Table 1, read-out: IC50 (nM) Breast MDA-MB-453): 19.3 ± 3.5 nM
- IC50 [9]: 22.8 ± 4.6 nM
- logP [10]: 1.47
- IC50 [11]: 19 to 37 nM
- IC50 [4, 20]: 31.8 ± 4.4 nM
- IC50 [5, 21]: 23.3 ± 3 nM

Compound: COc1ccc2c(c1)NC(=O)CN2c1nc(N)nc2c1CCC2 [Compound 12c, 4-(2-amino-6,7-dihydro-5H-cyclopenta[d]pyrimidin-4-yl)-7-methoxy-3,4-dihydroquinoxalin-2(1H)-one]
- IC50 [1, 22]: 2.3 ± 0.5 nM
- IC50 [8, 23]: 1.4 ± 0.4 nM
- IC50 [12, 24]: 5 ± 0.7 nM
- IC50 [13, 25]: 5.5 ± 1 nM
- IC50 [14]: 3.8 ± 0.6 nM
- IC50 [15]: 2.3 ± 0.3 nM
- IC50 [4, 26]: ~2.01 nM
- IC50 [5, 27]: 1.7 ± 0.3 nM

Compound: COc1ccc2c(c1)NC(=O)CN2c1nc(SC)nc2c1CCC2 [Compound 10, 7-methoxy-4-(2-(methylthio)-6,7-dihydro-5H-cyclopenta[d]pyrimidin-4-yl)-3,4-dihydroquinoxalin-2(1H)-one]
- IC50 [1, 22]: 4.3 ± 0.7 nM
- IC50 [8, 23]: 1.4 ± 0.6 nM
- IC50 [12, 24]: 3.9 ± 0.6 nM
- IC50 [13, 25]: 3.4 ± 0.6 nM
- IC50 [14]: 2.4 ± 0.4 nM
- IC50 [15]: 1.6 ± 0.2 nM
- IC50 [4, 26]: 3.4 ± 0.5 nM
- IC50 [5, 27]: 3.2 ± 0.5 nM

Compound: COc1ccc2c(c1)NC(=O)CN2c1nc(-n2ccnc2)nc2c1CCC2 [Compound 12h, 4-(2-(1H-imidazol-1-yl)-6,7-dihydro-5H-cyclopenta[d]pyrimidin-4-yl)-7-methoxy-3,4-dihydroquinoxalin-2(1H)-one]
- IC50 [1, 22]: 8.4 ± 1.5 nM
- IC50 [8, 23]: 4.5 ± 1.2 nM
- IC50 [12, 24]: 15.5 ± 2.5 nM
- IC50 [13, 25]: 11.5 ± 2.3 nM
- IC50 [14]: 8.2 ± 1.4 nM
- IC50 [15]: 4.7 ± 0.7 nM
- IC50 [4, 26]: ~5.7 nM
- IC50 [5, 27]: 5.8 ± 1.2 nM
